Experimental data reported in US20090035292A1, “Use of phosphatases to treat neuroblastomas and medulloblastomas” (priority 2007, published 2009).
Entries after “also recorded” stand apart in the source; their conditions may differ. Read-outs that look alike come from different tables or passages of the source.

Legend:
[1] = system: medulloblastoma cell line, DAOY; assay: Proliferation of medulloblastoma cell line DAOY in vitro; type: cell-based, human
Procedure: FIG. 4. […] The medulloblastoma cell line, DAOY, was exposed to 20 μM Compound 100 (squares), 5 μM Compound 100 (triangles), 1 μM Compound 100 (x's) or vehicle only (diamonds) for 3 days.
FIG. 5. […] The medulloblastoma cell line, DAOY, was exposed to 50 μM ATRA (squares), 20 μM ATRA (triangles), 5 μM ATRA (X's) or vehicle only (diamonds) for 3 days.
FIG. 6. […] The medulloblastoma cell line, DAOY, was exposed to 2 mM valproic acid (squares), 1 mM valproic acid (triangles), 0.5 mM valproic acid (X's) or vehicle only (diamonds) for 3 days.
The human medulloblastoma cell line DAOY is available from the American Type Culture Collection (ATCC), P.O. Box 1549, Manassas, Va., 20108, as ATCC No. HTB-186.
The medulloblastoma cell line, DAOY, was exposed to the cantharidin analog, Compound 100 at concentrations of 1 μM, 5 μM and 20 μM and evaluated for cellular proliferation over the course of three days. […] Therefore, Compound 100 even at low concentration is capable of preventing cellular proliferation.
To confirm these observations, cultured DAOY cells were treated with 50 μM, 20 μM, 5 μM or vehicle only for three days and examined for cellular proliferation. […] Consequently, because it has been determined that proliferation of medulloblastoma cells is inhibited by Compound 100, ATRA and valproic acid as single agent, it is reasonable to expect that the combination of compound 100 with each of these compounds or a regimen of all three agents may be effective in the treatment of medulloblastoma.
The medulloblastoma cell line, DAOY, was exposed to the HDAC inhibitor, Compound 205 at 10 μM, ATRA at 50 μM, and the compound 205 at 10 μM combined with ATRA at 50 μM, and evaluated for cellular proliferation over the course of seven days. […] (FIG. 8) Therefore, we have shown that Compound 205 is active against medulloblastoma cell line DAOY.

[2] = system: medulloblastoma cell line, DAOY; conditions: cited from earlier work
[3] = system: neuroblastoma cell line, SH-SY5Y; assay: Proliferation of neuroblastoma cell line SH-SY5Y in vitro; type: cell-based, human
Procedure: FIG. 1. […] The neuroblastoma cell line, SH-SY5Y, was exposed to Compound 100 for 4 or 7 days at concentrations of 1 μM (squares), 5 μM (triangles), 10 μM (short dashed line), 20 μM (diamonds), 50 μM (long dashed line) or vehicle only (circles).
FIG. 2. […] The neuroblastoma cell line, SH-SY5Y, was exposed to 5 μM Compound 100 (squares), 25 μM ATRA (circles), the combination of 5 μM Compound 100 and 25 μM ATRA (dashed line) or vehicle only (black line) for 4 or 7 days. […]
The human neuroblastoma cell line SH-SY5Y is available from the European Collection of Cell Cultures, Health Protection Agency, Porton Down SP40JG Salisbury, Wiltshire UK, as ECACC No. 94030304.
The neuroblastoma cell line, SHSY5Y, was exposed to the cantharidin analog Compound 100 for 4 or 7 days at concentrations of 1, 5, 10, 20 and 50 μM.
Subsequently, SH-SY5Y cells were exposed to Compound 100 at a concentration of 5 μM, ATRA at 25 μM or the combination of the two drugs at the aforementioned doses for 4 or 7 days. […]

[4] = system: medulloblastoma cell line DAOY xenograft tumors; assay: DAOY xenograft tumors in SCID mice; type: in vivo; conditions: 1.5 mg/kg daily intraperitoneally for 21 days, measured at days 7, 14 and 21 of treatment, vs vehicle (FIG. 7)
Procedure: DAOY cells (5 million) were implanted subcutaneously in the flank of SCID mice (Day 0). After the xenografts reached a size of ˜130 cubic mm, treatment was instituted with vehicle alone (control), compound 100 (1.5 mg/kg), or compound 102 (1.5 mg/kg) daily intraperitoneally for 21 days (beginning at day 7). Xenograft masses were measured at days 7, 14 and 21 of treatment.

neuroblastoma = conditions: given for 6 months to high risk patients after chemotherapeutic, surgical and radiation treatments (Matthay et al., 1999); cited from earlier work
[5] = system: neuroblastoma cell line, SH-SY5Y; conditions: cited from earlier work
[6] = system: neuroblastoma cell line SHSY xenograft; assay: SHSY xenograft in SCID mice; type: in vivo; conditions: measured day 7 and day 14, vs vehicle (FIG. 9)
Procedure: (§1) SHSY cells (5 million) were implanted subcutaneously in the flank of SCID mice. After the xenografts reached a size of ˜100 cubic mm, treatment was instituted with vehicle alone (control), compound 100 (1.5 mg/kg) or compound 205 (10 mg/kg) daily intraperitoneally for 14 days. Xenograft masses were measured day 7 and day 14 of treatment.
as §1, with “Compound” for “compound”

[7] = system: human glioblastoma multiforme; conditions: cited from earlier work
[8] = compound 205 at 10 μM combined with ATRA at 50 μM, seven days (FIG. 8)

Structure (SMILES): CCCC(CCC)C(=O)O [valproic acid, reference compound]
- inhibition of proliferation ([1]; valproic acid at 2 mM, 1 mM or 0.5 mM, three days (FIG. 6)): inhibits proliferation of medulloblastoma cells; also recorded: inhibition of proliferation
- cell proliferation ([2]; 0.6 mmol/L valproic acid, 21 days (Li, et al., 2005)): suppressed cell proliferation
- cell proliferation ([2]; 1 mmol/L valproic acid, 10 days (Li, et al., 2005)): suppressed cell proliferation
- proliferation ([3]; 2.5 mM valproic acid alone (FIG. 3)): proliferation was greatly reduced
- inhibition of proliferation ([3]; 2.5 mM valproic acid and 10 μM ATRA (FIG. 3)): exhibited inhibition of proliferation

Structure (SMILES): CC(C)(C)OC(=O)N1CCN(C(=O)C2C(C(=O)O)[C@H]3CC[C@@H]2O3)CC1 (stereo partly shown) [Compound 102]
- proliferation of xenograft (xenograft mass) [4]: inhibits the proliferation of the medulloblastoma cell line DAOY xenograft tumors; also recorded: inhibit the proliferation of DAOY cells

Structure (SMILES): CC1=C(/C=C/C(C)=C/C=C/C(C)=C\C(=O)O)C(C)(C)CCC1 [13-cis-retinoic acid]
- survival (neuroblastoma): survival is improved significantly

Structure (SMILES): CC1=C(/C=C/C(C)=C/C=C/C(C)=C/C(=O)O)C(C)(C)CCC1 [ATRA, all-trans retinoic acid, reference compound]
- rate of cellular proliferation ([1]; ATRA at 50 μM alone, seven days, vs vehicle (FIG. 8)): decreased rates of cellular proliferation as compared to the control
- inhibition of cellular proliferation ([1]; ATRA at 50 μM, 20 μM, 5 μM, three days (FIG. 5)): inhibits proliferation of medulloblastoma cells; also recorded: inhibited proliferation to varying degrees
- cellular proliferation ([2]; varying concentration of ATRA (Chang et al., 2007; Gumireddy et al., 2003)): inhibits cellular proliferation
- proliferation ([3]; 10 μM ATRA alone, day 4 (FIG. 3)): did not prevent proliferation
- inhibition of cellular proliferation ([3]; 25 μM ATRA alone, 4 or 7 days (FIG. 2)): did not impair cellular proliferation until after day 4
- cellular proliferation ([5]; long-term treatment with ATRA, demonstrated previously): can inhibit cellular proliferation
- cellular migration and invasion ([5]; short term treatment (1-3 days) with ATRA (Joshi et al 2006)): induced cellular migration and invasion

Structure (SMILES): O=C(CCCCCNC(=O)c1ccccc1S)Nc1cccnc1 [Compound 205]
- proliferation of xenograft (xenograft mass) ([6]; Compound 205 10 mg/kg daily intraperitoneally for 14 days, 10 mg/kg): inhibits the proliferation of the neuroblastoma cell line SHSY xenograft
- rate of cellular proliferation ([1]; Compound 205 at 10 μM alone, seven days, vs vehicle (FIG. 8)): decreased rates of cellular proliferation as compared to the control; also recorded: inhibits proliferation of the medulloblastoma cell line DAOY
- rate of cellular proliferation [1, 8]: inhibits proliferation of the medulloblastoma cell line DAOY
- synergy in combination [1, 8]: synergistically active
- rate of cellular proliferation ([1]; compound 205 at 10 μM combined with ATRA at 50 μM, seven days (FIG. 8), listed as compound 205): marked decrease in the rate of cellular proliferation

Structure (SMILES): CN1CCN(C(=O)C2C(C(=O)O)[C@H]3CC[C@@H]2O3)CC1 (stereo partly shown) [Compound 100]
- inhibition of human cancer cells in vitro ([7]; Compound 100 in combination with trichostatin A (PCT/US2007/003095)): better then would be expected from the combination of the agents alone
- inhibition of human cancer cells in vitro ([7]; Compound 100 in combination with valproic acid (PCT/US2007/003095)): better then would be expected from the combination of the agents alone
- cellular proliferation ([7]; combination of ATRA with Compound 100, human glioblastoma multiforme (PCT/US2007/003095)): highly effective in preventing cellular proliferation
- proliferation of xenograft (xenograft mass) ([6]; Compound 100 1.5 mg/kg daily intraperitoneally for 14 days, 1.5 mg/kg): inhibits the proliferation of the neuroblastoma cell line SHSY xenograft
- rate of cellular proliferation ([1]; 20 μM Compound 100, three days (FIG. 4, squares)): greatest decrease in cellular proliferation
- rate of cellular proliferation ([1]; Compound 100 at 1 μM, 5 μM and 20 μM, three days, vs vehicle (FIG. 4)): inhibits proliferation of medulloblastoma cells; also recorded: decreased rates of cellular proliferation as compared to the control
- inhibition of cellular proliferation ([3]; 5 μM Compound 100 alone, 4 or 7 days (FIG. 2)): failed to significantly inhibit cellular proliferation
- proliferation inhibition ([3]; 10 μM ATRA and 10 μM Compound 100 (FIG. 3)): exhibited high levels of proliferation inhibition
- proliferation ([3]; 10 μM Compound 100 alone (FIG. 3)): proliferation was greatly reduced
- synergy in combinations ([3]; 10 μM Compound 100 with 10 μM ATRA, 2.5 mM valproic acid or both (FIG. 3)): synergistically enhanced the activity of ATRA, valproic acid and valproic acid in combination with ATRA
- proliferation inhibition ([3]; 2.5 mM valproic acid and 10 μM Compound 100 (FIG. 3)): exhibited high levels of proliferation inhibition
- proliferation inhibition ([3]; 2.5 mM valproic acid, 10 μM ATRA and 10 μM Compound 100 (FIG. 3)): severely inhibits proliferation of neuroblastoma cells; also recorded: exhibited high levels of proliferation inhibition
- inhibition of cell proliferation ([3]; Compound 100 at 1 μM and 5 μM, day 4, vs vehicle (FIG. 1)): little or no inhibition of cell proliferation
- cell growth ([3]; Compound 100 at 1 μM and 5 μM, day 7, vs vehicle (FIG. 1)): enhanced cell growth
- inhibition of proliferation ([3]; Compound 100 at 1, 5, 10, 20, 50 μM for 4 or 7 days (FIG. 1 legend)): inhibits proliferation of neuroblastoma cells
- growth inhibition ([3]; Compound 100 at doses less than 50 μM, day 7 (FIG. 1)): escape of growth inhibition
- cellular proliferation ([3]; Compound 100 at low doses): slightly stimulates cellular proliferation
- inhibition of cell proliferation ([3]; Compound 100 at the three higher doses (10, 20, 50 μM), day 4 (FIG. 1)): Dose dependent inhibition
- inhibition of cellular proliferation ([3]; combination of 5 μM Compound 100 and 25 μM ATRA, day 4 and day 7 (FIG. 2)): inhibits proliferation of neuroblastoma cells
- inhibition of cellular proliferation ([3]; combination of 5 μM Compound 100 and 25 μM ATRA, day 4 and day 7 (FIG. 2), listed as compound 100): potentiated the extent of inhibition by ATRA
- proliferation of xenograft (xenograft mass) [4]: inhibits the proliferation of the medulloblastoma cell line DAOY xenograft tumors; also recorded: inhibit the proliferation of DAOY cells
